Experimental data published in BindingDB's records for doi:10.1016/s0960-894x(98)00140-1 (University of Connecticut, 1998).

Target: Pancreatic triacylglycerol lipase (Sus scrofa) (UniProt P00591)
Experiment: Compound was tested for inhibition of porcine pancreatic lipase

Pancreatic triacylglycerol lipase (Sus scrofa), sequence (P00591 whole entry, looked up): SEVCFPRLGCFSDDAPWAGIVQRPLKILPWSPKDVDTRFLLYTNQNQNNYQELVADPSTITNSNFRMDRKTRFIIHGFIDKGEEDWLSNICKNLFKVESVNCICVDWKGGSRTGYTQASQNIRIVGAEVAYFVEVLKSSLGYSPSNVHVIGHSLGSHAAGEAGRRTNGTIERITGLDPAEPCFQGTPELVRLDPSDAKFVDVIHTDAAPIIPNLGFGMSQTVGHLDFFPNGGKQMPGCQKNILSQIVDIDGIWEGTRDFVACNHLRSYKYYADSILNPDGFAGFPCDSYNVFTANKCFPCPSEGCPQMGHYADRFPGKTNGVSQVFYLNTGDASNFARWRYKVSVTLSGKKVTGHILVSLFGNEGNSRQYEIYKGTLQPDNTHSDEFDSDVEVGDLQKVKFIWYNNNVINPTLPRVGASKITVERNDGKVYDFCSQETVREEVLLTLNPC

IC50: 3.44 µM
Compound: C=C1O[C@@H](C[C@H](CCCCCCCCCCC)OC(=O)[C@H](CC(C)C)NC=O)[C@@H]1CCCCCC
